The values below come from patent US20260201008A1, “SECRETIN-DERIVED GLP1R SELECTIVE AGONISTS” (GUBRA A/S, priority 2023, published 2026).

Where two headings read alike, the source gives them in different places. Numbered stars: 1 amine (or outer) side, 2 acyl side, 3 side chain; on linkers, the order of the positions; unused ones are H or OH. Square brackets hold non-standard residues; d marks the D form. Side chains are listed from the residue outwards. Peptide text beside a SMILES is read from it. * marks the point of attachment. C20 diacid = O=C(O)CCCCCCCCCCCCCCCCCCC(=O)*; γGlu = O=C(O)[C@H](CCC(=O)[*:2])N[*:1]; AEEA = NCCOCCOCC(=O)O; Aib = CC(C)(N)C(=O)O

Series [1] deals with GLP1R (Homo sapiens, UniProt P43220). Briefly: hGLP1R potency, cAMP accumulation in CHO-K1 cells stably overexpressing hGLP1R. Details: host or cells: CHO-K1. The conditions noted are these: for Selectivity: SCTR EC50/GLP1R EC50 ratio; for EC50: cAMP accumulation, CHO-K1 cells overexpressing hGLP1R. It is filed as cell-based. An outline of the steps: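 2000 cells/well, DPBS + 0.05% casein + 0.5 mM IBMX; 30 min RT stimulation; HTRF cAMP detection after 1 h. Purified: 3-fold ×11, n=2; crude: 10-fold ×5, n=1. EC50 by variable-slope fit.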
In general terms: Changes in cAMP serve as a functional read-out for many G protein-coupled receptors.

Series [2] deals with SCTR (Homo sapiens, UniProt P47872). In words: hSCTR potency, cAMP accumulation in CHO-K1 cells stably overexpressing hSCTR. Format: cell-based. The arrangement: alternatively Euroscreen ES-712-AF; FAST-0161L; host or cells: CHO-K1. Conditions: cAMP accumulation, CHO-K1 cells overexpressing hSCTR. An outline of the steps: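 Thawed CHO-K1 cells carrying stable hSCTR are plated into casein/IBMX buffer (0.05%, 0.5 mM), dosed immediately for 30 min at room temperature, then cAMP is detected by TR-FRET. Purified peptides run as 11 three-fold dilutions in duplicate, and curves are fitted with variable slope.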

Series [3] can be described thus: Turbidity of crude library peptides (absorbance at 600 nm). It is filed as physicochemical. Conditions: Physical stability of peptides. A digest of the protocol:
(§1)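 Turbidity is the absorbance at 600 nm, taken before heating. Fibril signal is the mean ThT emission at 480 nm (450 nm excitation), read every 10 min over 72 h at 40° C with 700 rpm shaking between reads. Peptides at 267 μM, pH 4.0 acetate or pH 7.0 phosphate buffer (50 mM), 4 μM ThT final.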

Series [4] can be described thus: Fibril formation of crude library peptides (Thioflavin T). Format: physicochemical. The arrangement: key: average ThT fluorescence emission at 480 nm (ex 450 nm), raw units. The conditions noted are these: Physical stability of peptides. A digest of the protocol: as §1
Where [5] appears, read: read-out: pEC50 hGLPR1 (converted).
[6] abbreviates: read-out: pEC50 hSCTR (converted).

SCTR, sequence (P47872 23-440): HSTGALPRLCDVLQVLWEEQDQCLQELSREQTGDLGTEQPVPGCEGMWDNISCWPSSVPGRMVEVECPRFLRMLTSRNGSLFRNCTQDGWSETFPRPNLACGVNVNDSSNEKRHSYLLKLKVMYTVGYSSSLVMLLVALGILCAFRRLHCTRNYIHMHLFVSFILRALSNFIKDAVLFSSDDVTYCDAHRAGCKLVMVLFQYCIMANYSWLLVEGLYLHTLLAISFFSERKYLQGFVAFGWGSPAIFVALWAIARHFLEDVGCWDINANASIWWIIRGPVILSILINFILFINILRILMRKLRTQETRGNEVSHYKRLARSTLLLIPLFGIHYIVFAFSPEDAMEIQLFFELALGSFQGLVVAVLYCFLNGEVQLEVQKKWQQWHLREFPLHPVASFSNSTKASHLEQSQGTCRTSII
GLP1R, sequence (P43220 24-463): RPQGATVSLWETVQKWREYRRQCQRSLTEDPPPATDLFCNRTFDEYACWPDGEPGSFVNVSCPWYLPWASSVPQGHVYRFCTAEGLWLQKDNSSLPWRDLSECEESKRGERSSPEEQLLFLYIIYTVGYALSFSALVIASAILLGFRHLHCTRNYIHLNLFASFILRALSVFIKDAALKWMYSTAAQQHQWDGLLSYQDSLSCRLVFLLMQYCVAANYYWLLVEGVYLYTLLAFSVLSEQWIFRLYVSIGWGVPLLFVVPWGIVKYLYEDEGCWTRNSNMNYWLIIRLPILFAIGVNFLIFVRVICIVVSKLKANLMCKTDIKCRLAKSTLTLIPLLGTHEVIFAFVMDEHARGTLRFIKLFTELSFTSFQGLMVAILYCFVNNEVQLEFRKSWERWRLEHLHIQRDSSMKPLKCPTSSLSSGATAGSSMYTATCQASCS

As to `CC(C)C[C@H](NC(=O)[C@H](Cc1ccccc1)NC(=O)[C@H](CCCNC(=N)N)NC(=O)[C@H](CCC(N)=O)NC(=O)C(C)(C)NC(=O)[C@H](C)NC(=O)[C@H](C)NC(=O)C(C)(C)NC(=O)[C@H](CCC(=O)O)NC(=O)[C@H](CCCCNC(=O)COCCOCCNC(=O)COCCOCCNC(=O)CC[C@H](NC(=O)CCCCCCCCCCCCCCCCCCC(=O)O)C(=O)O)NC(=O)[C@H](CC(C)C)NC(=O)[C@@H](NC(=O)[C@H](CO)NC(=O)[C@@H](NC(=O)[C@H](CC(=O)O)NC(=O)[C@H](CO)NC(=O)[C@@H](NC(=O)[C@H](Cc1ccccc1)NC(=O)[C@@H](NC(=O)CNC(=O)[C@H](CCC(=O)O)NC(=O)C(C)(C)NC(=O)[C@@H](N)Cc1c[nH]cn1)[C@@H](C)O)[C@@H](C)O)C(C)C)[C@@H](C)O)C(=O)N[C@@H](CCC(=O)O)C(=O)N[C@@H](Cc1c[nH]cn1)C(=O)N[C@@H](CC(C)C)C(=O)N[C@H](C(N)=O)C(C)C` [compound 32] (H-H[Aib]EGTFTSDVSTLK([AEEA-AEEA-γGlu-C20 diacid])E[Aib]AA[Aib]QRFLEHLV-NH2), the Selectivity in series [1] amounted to 23147. Further, the EC50 is 0.0251 nM in series [1] (setting [5]) and 631 nM in series [2] (setting [6]). Besides, the “Turbidity (pH 7)” value in series [3] turned out to be 0.08. The compound further displayed a Fibril formation in series [4] of 16551.

Take `CC(C)C[C@H](NC(=O)[C@H](Cc1ccccc1)NC(=O)[C@H](CCCNC(=N)N)NC(=O)[C@H](CCC(N)=O)NC(=O)[C@H](CC(N)=O)NC(=O)C(C)(C)NC(=O)[C@H](C)NC(=O)[C@H](CCC(=O)O)NC(=O)[C@H](CCC(=O)O)NC(=O)[C@H](CCCCNC(=O)COCCOCCNC(=O)COCCOCCNC(=O)CC[C@H](NC(=O)CCCCCCCCCCCCCCCCCCC(=O)O)C(=O)O)NC(=O)[C@H](CC(C)C)NC(=O)[C@H](Cc1ccc(O)cc1)NC(=O)[C@H](CO)NC(=O)[C@@H](NC(=O)[C@H](CC(=O)O)NC(=O)[C@H](CO)NC(=O)[C@@H](NC(=O)[C@H](Cc1ccccc1)NC(=O)[C@@H](NC(=O)CNC(=O)[C@H](CCC(=O)O)NC(=O)C(C)(C)NC(=O)[C@@H](N)Cc1c[nH]cn1)[C@@H](C)O)[C@@H](C)O)C(C)C)C(=O)N[C@@H](CCC(=O)O)C(=O)N[C@@H](Cc1c[nH]cn1)C(=O)N[C@@H](CC(C)C)C(=O)N[C@H](C(N)=O)C(C)C` [compound 131] (H-H[Aib]EGTFTSDVSYLK([AEEA-AEEA-γGlu-C20 diacid])EEA[Aib]NQRFLEHLV-NH2): the EC50 is 0.00501 nM in series [1] (read-out: hGLP1R pEC50 (converted)) and 5010 nM in series [2] (read-out: hSCTR pEC50 (converted)). In addition, the “SCTR EC50/GLP1R EC50 ratio” value in series [1] (selectivity for hGLP1R over hSCTR, cAMP accumulation in CHO-K1 cells) is 996093. Further, the “Turbidity (pH 7)” value in series [3] came to 0.09. Also, the Fibril formation in series [4] was 2709.

Regarding `CC(C)C[C@H](NC(=O)[C@H](Cc1ccccc1)NC(=O)[C@H](CCCNC(=N)N)NC(=O)[C@H](CCC(N)=O)NC(=O)[C@H](C)NC(=O)[C@H](C)NC(=O)[C@H](C)NC(=O)[C@@H](NC(=O)[C@H](CCC(=O)O)NC(=O)[C@H](CCCCNC(=O)COCCOCCNC(=O)COCCOCCNC(=O)CC[C@H](NC(=O)CCCCCCCCCCCCCCCCCCC(=O)O)C(=O)O)NC(=O)[C@H](CC(C)C)NC(=O)[C@H](Cc1ccccc1)NC(=O)[C@H](CO)NC(=O)[C@@H](NC(=O)[C@H](CC(=O)O)NC(=O)[C@H](CO)NC(=O)[C@@H](NC(=O)[C@H](Cc1ccccc1)NC(=O)[C@@H](NC(=O)CNC(=O)[C@H](CCC(=O)O)NC(=O)C(C)(C)NC(=O)[C@@H](N)Cc1c[nH]cn1)[C@@H](C)O)[C@@H](C)O)C(C)C)[C@@H](C)O)C(=O)N[C@@H](CCC(=O)O)C(=O)N[C@@H](Cc1c[nH]cn1)C(=O)N[C@@H](CC(C)C)C(=O)N[C@H](C(N)=O)C(C)C` [compound 44] (H-H[Aib]EGTFTSDVSFLK([AEEA-AEEA-γGlu-C20 diacid])ETAAAQRFLEHLV-NH2), the Selectivity in series [1] was 114525. The EC50 is 0.0316 nM in series [1] (setting [5]) and 3980 nM in series [2] (setting [6]). The “Turbidity (pH 7)” value in series [3] is given as 0.08. Besides, the Fibril formation in series [4] was determined as 10742.
